# Several values for one entry are separate records, joined by “and”; a condition that tells them apart may be missing. Identical values can stand only once.
# What was measured:
# Experiment in all cases: radiometric filter-binding kinase assay, Kinase HotSpot
# Conditions in all cases: compound 0.5 µM; ATP 10 µM
# [1] = biological target: ACVR1 (human) (UniProt Q04771)
# [2] = biological target: ALK (human) (UniProt Q9UM73)
# [3] = biological target: AURKC (human) (UniProt Q9UQB9)
# [4] = biological target: CDK6 CCND1 (human) (UniProt Q00534+P24385)
# [5] = biological target: CHEK2 (human) (UniProt O96017)
# [6] = biological target: CHUK (human) (UniProt O15111)
# [7] = biological target: CLK3 (human) (UniProt P49761)
# [8] = biological target: EPHA4 (human) (UniProt P54764)
# [9] = biological target: ERBB2 (human) (UniProt P04626)
# [10] = biological target: FGFR4 (human) (UniProt P22455)
# [11] = biological target: IRAK1 (human) (UniProt P51617)
# [12] = biological target: JAK3 JH1 JH2 (human) (UniProt P52333)
# [13] = biological target: KDR (human) (UniProt P35968)
# [14] = biological target: KIT (human) (UniProt P10721)
# [15] = biological target: MAPK1 (human) (UniProt P28482)
# [16] = biological target: MAPK10 (human) (UniProt P53779)
# [17] = biological target: MAPK12 (human) (UniProt P53778)
# [18] = biological target: MAPK13 (human) (UniProt O15264)
# [19] = biological target: MARK1 (human) (UniProt Q9P0L2)
# [20] = biological target: MELK (human) (UniProt Q14680)
# [21] = biological target: MST1R (human) (UniProt Q04912)
# [22] = biological target: MST4 (human) (UniProt Q9P289)
# [23] = biological target: MYLK (human) (UniProt Q15746)
# [24] = biological target: NEK4 (human) (UniProt P51957)
# [25] = biological target: NEK6 (human) (UniProt Q9HC98)
# [26] = biological target: NEK7 (human) (UniProt Q8TDX7)
# [27] = biological target: NUAK2 (human) (UniProt Q9H093)
# [28] = biological target: PASK (human) (UniProt Q96RG2)
# [29] = biological target: PIM3 (human) (UniProt Q86V86)
# [30] = biological target: PRKCA (human) (UniProt P17252)
# [31] = biological target: PRKCH (human) (UniProt P24723)
# [32] = biological target: PRKCZ (human) (UniProt Q05513)
# [33] = biological target: PRKD2 (human) (UniProt Q9BZL6)
# [34] = biological target: PRKG1 (human) (UniProt Q13976)
# [35] = biological target: ROCK1 (human) (UniProt Q13464)
# [36] = biological target: RPS6KA1 KD1 KD2 (human) (UniProt Q15418)
# [37] = biological target: RPS6KB1 (human) (UniProt P23443)
# [38] = biological target: RPS6KB2 (human) (UniProt Q9UBS0)
# [39] = biological target: SGK2 (human) (UniProt Q9HBY8)
# [40] = biological target: SRPK1 (human) (UniProt Q96SB4)
# [41] = biological target: TEC (human) (UniProt P42680)
# [42] = biological target: ULK1 (human) (UniProt O75385)
# Chain of MELK (human) (Q14680 whole entry, looked up): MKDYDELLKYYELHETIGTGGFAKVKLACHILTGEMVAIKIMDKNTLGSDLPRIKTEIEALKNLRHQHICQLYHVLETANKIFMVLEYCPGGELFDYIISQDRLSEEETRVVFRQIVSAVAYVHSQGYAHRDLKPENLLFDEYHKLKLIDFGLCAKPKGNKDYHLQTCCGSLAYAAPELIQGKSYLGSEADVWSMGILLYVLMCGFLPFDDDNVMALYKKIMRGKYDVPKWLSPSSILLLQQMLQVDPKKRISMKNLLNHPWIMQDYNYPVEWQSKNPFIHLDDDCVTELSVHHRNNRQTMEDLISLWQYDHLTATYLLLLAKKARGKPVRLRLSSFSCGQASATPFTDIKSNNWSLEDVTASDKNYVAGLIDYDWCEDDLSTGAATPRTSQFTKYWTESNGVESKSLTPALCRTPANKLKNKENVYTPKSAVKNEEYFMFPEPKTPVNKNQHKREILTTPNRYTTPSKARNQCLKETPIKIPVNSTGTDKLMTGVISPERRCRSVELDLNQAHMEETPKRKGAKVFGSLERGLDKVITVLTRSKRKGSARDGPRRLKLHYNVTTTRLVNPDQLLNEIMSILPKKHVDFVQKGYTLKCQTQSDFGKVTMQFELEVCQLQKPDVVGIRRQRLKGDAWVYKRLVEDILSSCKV
# Chain of MARK1 (human) (Q9P0L2 whole entry, looked up): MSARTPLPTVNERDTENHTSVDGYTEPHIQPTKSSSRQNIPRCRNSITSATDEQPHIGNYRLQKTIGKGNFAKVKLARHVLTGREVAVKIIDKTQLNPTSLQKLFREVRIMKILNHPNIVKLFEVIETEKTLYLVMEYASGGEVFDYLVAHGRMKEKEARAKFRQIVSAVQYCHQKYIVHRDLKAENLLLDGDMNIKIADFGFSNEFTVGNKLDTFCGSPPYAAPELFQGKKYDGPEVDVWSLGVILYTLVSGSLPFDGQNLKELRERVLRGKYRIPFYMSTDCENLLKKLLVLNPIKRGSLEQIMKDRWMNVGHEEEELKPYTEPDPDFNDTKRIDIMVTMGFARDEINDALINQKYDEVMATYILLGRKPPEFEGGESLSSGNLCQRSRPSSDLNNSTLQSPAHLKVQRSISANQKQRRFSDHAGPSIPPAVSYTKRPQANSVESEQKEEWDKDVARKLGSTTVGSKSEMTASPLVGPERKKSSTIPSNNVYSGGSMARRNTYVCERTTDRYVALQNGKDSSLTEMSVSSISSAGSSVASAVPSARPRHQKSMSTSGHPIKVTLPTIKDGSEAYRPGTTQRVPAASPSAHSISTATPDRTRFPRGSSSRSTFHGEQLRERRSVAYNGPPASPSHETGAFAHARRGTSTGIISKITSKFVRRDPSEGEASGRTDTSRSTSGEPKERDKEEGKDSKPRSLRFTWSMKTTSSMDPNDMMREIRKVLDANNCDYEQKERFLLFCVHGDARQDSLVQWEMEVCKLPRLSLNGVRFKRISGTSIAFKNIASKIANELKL
# Chain of PASK (human) (Q96RG2 whole entry, looked up): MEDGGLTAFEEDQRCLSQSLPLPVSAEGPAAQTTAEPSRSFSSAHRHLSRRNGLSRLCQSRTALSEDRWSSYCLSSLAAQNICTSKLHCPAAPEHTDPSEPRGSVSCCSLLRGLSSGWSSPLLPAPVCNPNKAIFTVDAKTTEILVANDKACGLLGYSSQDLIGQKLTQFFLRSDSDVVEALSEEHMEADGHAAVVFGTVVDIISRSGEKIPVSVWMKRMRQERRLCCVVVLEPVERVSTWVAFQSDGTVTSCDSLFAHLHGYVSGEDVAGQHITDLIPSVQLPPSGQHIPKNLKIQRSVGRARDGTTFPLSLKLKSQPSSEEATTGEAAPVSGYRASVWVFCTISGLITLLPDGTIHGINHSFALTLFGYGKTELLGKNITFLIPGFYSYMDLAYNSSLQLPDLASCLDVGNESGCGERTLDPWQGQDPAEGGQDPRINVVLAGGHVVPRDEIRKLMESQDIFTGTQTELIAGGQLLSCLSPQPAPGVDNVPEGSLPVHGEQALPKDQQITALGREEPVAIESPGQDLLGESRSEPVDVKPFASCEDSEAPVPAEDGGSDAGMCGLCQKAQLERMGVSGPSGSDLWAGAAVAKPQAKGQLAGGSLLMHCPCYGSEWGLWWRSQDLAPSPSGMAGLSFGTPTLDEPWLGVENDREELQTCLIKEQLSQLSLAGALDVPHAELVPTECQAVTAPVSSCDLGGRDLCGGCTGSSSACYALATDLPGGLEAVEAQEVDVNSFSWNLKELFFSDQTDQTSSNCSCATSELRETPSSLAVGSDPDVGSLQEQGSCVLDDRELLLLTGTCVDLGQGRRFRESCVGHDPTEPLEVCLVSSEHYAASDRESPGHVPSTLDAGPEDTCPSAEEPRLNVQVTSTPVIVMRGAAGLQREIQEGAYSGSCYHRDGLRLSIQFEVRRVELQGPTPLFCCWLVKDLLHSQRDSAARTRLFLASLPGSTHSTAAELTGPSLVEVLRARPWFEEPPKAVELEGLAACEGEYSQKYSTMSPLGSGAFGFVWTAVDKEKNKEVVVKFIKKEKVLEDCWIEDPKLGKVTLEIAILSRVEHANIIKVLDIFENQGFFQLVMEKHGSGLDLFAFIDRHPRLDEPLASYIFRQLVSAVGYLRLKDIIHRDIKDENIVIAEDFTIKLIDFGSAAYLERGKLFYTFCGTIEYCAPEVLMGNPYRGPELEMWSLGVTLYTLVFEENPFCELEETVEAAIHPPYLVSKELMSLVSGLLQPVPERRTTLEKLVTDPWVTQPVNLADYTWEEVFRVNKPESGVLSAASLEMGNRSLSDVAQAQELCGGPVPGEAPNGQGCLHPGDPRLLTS
# Chain of ROCK1 (human) (Q13464 whole entry, looked up): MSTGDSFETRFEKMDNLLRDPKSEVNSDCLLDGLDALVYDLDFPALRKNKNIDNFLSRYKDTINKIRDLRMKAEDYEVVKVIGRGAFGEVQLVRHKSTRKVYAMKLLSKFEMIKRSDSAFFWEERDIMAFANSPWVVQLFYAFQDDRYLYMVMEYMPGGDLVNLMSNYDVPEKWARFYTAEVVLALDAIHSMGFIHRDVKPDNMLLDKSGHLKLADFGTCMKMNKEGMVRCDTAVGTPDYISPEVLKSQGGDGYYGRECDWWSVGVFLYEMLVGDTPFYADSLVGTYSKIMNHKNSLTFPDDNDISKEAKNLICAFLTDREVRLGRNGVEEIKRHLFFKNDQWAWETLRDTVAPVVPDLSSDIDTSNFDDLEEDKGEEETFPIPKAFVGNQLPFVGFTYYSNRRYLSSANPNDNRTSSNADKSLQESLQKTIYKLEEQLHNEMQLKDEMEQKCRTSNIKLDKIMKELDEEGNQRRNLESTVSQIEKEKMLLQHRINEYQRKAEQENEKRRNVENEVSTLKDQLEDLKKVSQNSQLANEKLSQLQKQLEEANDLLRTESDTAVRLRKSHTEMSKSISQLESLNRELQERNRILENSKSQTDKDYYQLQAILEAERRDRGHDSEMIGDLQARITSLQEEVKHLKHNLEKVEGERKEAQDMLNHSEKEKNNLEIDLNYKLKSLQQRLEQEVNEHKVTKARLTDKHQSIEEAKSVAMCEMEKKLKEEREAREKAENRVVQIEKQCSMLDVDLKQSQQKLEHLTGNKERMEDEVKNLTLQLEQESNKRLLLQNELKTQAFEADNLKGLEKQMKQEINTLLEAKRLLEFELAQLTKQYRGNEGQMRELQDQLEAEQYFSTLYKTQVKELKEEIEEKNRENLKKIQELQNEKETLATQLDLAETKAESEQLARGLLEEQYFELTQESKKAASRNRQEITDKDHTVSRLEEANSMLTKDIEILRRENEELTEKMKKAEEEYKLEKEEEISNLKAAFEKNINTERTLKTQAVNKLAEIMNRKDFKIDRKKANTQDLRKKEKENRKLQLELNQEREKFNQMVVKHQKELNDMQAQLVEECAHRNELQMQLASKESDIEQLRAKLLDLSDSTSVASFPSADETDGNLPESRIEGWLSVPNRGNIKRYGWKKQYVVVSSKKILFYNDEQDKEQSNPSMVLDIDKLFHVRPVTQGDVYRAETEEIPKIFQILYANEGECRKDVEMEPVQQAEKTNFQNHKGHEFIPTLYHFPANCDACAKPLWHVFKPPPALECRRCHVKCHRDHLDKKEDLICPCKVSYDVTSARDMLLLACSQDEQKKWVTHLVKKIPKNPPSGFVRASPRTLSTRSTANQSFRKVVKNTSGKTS
# Chain of CLK3 (human) (P49761 whole entry, looked up): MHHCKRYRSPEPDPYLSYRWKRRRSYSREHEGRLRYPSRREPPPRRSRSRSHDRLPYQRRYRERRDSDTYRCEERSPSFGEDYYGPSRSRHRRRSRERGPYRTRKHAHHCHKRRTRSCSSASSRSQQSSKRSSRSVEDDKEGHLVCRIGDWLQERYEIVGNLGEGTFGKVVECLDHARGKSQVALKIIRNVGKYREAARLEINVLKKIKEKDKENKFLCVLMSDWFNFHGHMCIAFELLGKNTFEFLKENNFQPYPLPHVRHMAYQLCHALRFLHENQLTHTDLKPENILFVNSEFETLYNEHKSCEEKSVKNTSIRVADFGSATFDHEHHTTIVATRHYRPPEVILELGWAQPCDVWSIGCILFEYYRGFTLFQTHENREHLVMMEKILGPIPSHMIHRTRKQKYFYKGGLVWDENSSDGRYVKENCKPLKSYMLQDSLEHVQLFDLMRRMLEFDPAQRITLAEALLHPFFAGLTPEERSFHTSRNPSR
# Chain of MAPK13 (human) (O15264 whole entry, looked up): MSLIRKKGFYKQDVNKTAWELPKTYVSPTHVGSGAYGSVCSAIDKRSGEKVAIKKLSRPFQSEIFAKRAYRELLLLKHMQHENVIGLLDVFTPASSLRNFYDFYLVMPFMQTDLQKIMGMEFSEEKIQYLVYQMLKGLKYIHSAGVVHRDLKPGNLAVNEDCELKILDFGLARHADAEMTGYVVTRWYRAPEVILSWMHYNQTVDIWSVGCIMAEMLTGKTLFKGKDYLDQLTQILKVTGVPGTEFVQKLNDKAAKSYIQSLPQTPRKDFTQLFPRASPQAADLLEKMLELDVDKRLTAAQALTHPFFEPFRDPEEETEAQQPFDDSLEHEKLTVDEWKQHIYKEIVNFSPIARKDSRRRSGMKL
structure (smiles),measurement,setting,value
Cc1cccc(-c2nc(C(C)(C)C)[nH]c2-c2ccc3c(c2)OCO3)n1,residual activity,[1],96.4%
same,residual activity,[2],103%
same,residual activity,[3],91.4%
same,residual activity,[4],95.2%
same,residual activity,[5],96.4%
same,residual activity,[6],108%
same,residual activity,[7],104%
same,residual activity,[8],97.3%
same,residual activity,[9],102%
same,residual activity,[10],73.8%
same,residual activity,[11],118%
same,residual activity,[12],92.6%
same,residual activity,[13],94.7%
same,residual activity,[14],93.6%
same,residual activity,[15],95.8%
same,residual activity,[16],96%
same,residual activity,[17],95.7%
same,residual activity,[18],107%
same,residual activity,[19],85.1%
same,residual activity,[20],92.7%
same,residual activity,[21],101%
same,residual activity,[22],95.5%
same,residual activity,[23],105%
same,residual activity,[24],94.9%
same,residual activity,[25],109%
same,residual activity,[26],106%
same,residual activity,[27],138%
same,residual activity,[28],78.9%
same,residual activity,[29],106%
same,residual activity,[30],99.6%
same,residual activity,[31],104%
same,residual activity,[32],87.9%
same,residual activity,[33],93.6%
same,residual activity,[34],74.6% and 91%
same,residual activity,[35],101%
same,residual activity,[36],96.4%
same,residual activity,[37],95.9%
same,residual activity,[38],102%
same,residual activity,[39],100%
same,residual activity,[40],96.5%
same,residual activity,[41],123%
same,residual activity,[42],82.7%
CCCCc1c(-c2ccc(OC)cc2)[nH]c2nccnc12,residual activity,[1],86.9%
same,residual activity,[2],96.7%
same,residual activity,[3],55.8%
same,residual activity,[4],54.8%
same,residual activity,[5],72.8%
same,residual activity,[6],97.3%
same,residual activity,[7],116%
same,residual activity,[8],85.5%
same,residual activity,[9],96.4%
same,residual activity,[10],92.5%
same,residual activity,[11],64.3%
same,residual activity,[12],92.8%
same,residual activity,[13],88.8%
same,residual activity,[14],82.9%
same,residual activity,[15],103%
same,residual activity,[16],97.2%
same,residual activity,[17],102%
same,residual activity,[18],99.1%
same,residual activity,[19],92.9%
same,residual activity,[20],84.4%
same,residual activity,[21],104%
same,residual activity,[22],75.8%
same,residual activity,[23],96.8%
same,residual activity,[24],81.3%
same,residual activity,[25],111%
same,residual activity,[26],107%
same,residual activity,[27],68%
same,residual activity,[28],97.6%
same,residual activity,[29],90.9%
same,residual activity,[30],92.7%
same,residual activity,[31],103%
same,residual activity,[32],93.9%
same,residual activity,[33],101%
same,residual activity,[34],102% and 92.7%
same,residual activity,[35],99.9%
same,residual activity,[36],89.8%
same,residual activity,[37],108%
same,residual activity,[38],99.7%
same,residual activity,[39],116%
same,residual activity,[40],100%
same,residual activity,[41],134%
same,residual activity,[42],87.9%
O=C1C(Cl)=C(N2C(=O)CCC2=O)C(=O)c2ccccc21,residual activity,[1],96.9%
same,residual activity,[2],88.5%
same,residual activity,[3],97.9%
same,residual activity,[4],100%
same,residual activity,[5],95.7%
same,residual activity,[6],101%
same,residual activity,[7],114%
same,residual activity,[8],101%
same,residual activity,[9],95.4%
same,residual activity,[10],105%
same,residual activity,[11],101%
same,residual activity,[12],101%
same,residual activity,[13],88.3%
same,residual activity,[14],84.7%
same,residual activity,[15],73.6%
same,residual activity,[16],93.6%
same,residual activity,[17],100%
same,residual activity,[18],106%
same,residual activity,[19],99.3%
same,residual activity,[20],96.4%
same,residual activity,[21],94.5%
same,residual activity,[22],98.3%
same,residual activity,[23],99.4%
same,residual activity,[24],99.6%
same,residual activity,[25],104%
same,residual activity,[26],95.4%
same,residual activity,[27],86.7%
same,residual activity,[28],103%
same,residual activity,[29],101%
same,residual activity,[30],99.1%
same,residual activity,[31],93.1%
same,residual activity,[32],114%
same,residual activity,[33],95.7%
same,residual activity,[34],104% and 97.8%
same,residual activity,[35],106%
same,residual activity,[36],96.6%
same,residual activity,[37],101%
same,residual activity,[38],102%
same,residual activity,[39],99.5%
same,residual activity,[40],103%
same,residual activity,[41],101%
same,residual activity,[42],107%

# — the kinase profiling compilation of Christmann-Franck et al. (2016)
